Data as given in patent publication US20100249064A1, “METHODS AND COMPOSITIONS FOR TREATING DISEASES AND CONDITIONS INVOLVING HIGHER MOLECULAR WEIGHT HYALURONAN” (University of Chicago, priority 2007, published 2010).

What was measured:
[1] = test system: Human pulmonary artery EC; experiment: Cortical actin (phalloidin) staining and quantitation; type: cell-based; settings: MβCD one hour prior to 100 nM High MW HA for 30 min
Procedure: Immunofluorescence Microscopy and Cortical Actin Quantitation—Polymerized actin rearrangement was assessed first with Texas Red-conjugated phalloidin (Invitrogen (Molecular Probes), Eugene, Oreg.) and then analyzed using a Nikon Eclipse TE 300 microscope as described (Garcia et al., 2001). ImageQuant™ software (Amersham Biosciences Corp. (Piscataway, N.J.)) was used to analyze the computer recorded .tiff images. A standardized average grey value (SAGV) was generated for total phalloidin staining versus cortical phalloidin staining for each cell (Singleton et al., 2005). The following equation was used to calculate percent cortical actin staining: ((cortical actin SAGV×area) divided by (total actin SAGV×area))×100. At least ten cells per sample were analyzed. Experiments were performed in triplicate.
Immunofluorescence Microscopy. EC were serum-starved for one hour prior to the addition of 100 nM high MW HA. EC were then fixed in 4% paraformaldehyde, permeablized with ethanol and incubated with specific protein or interest primary antibody for 30 min followed by either FITC or Texas Red-conjugated secondary (Invitrogen (Molecular Probes), Eugene, Oreg.) and analyzed using a Nikon Eclipse TE 300 microscope as described (Garcia et. al., 2001).

Rac1 = Rac1 activation assay, HGF; type: cell-based, human; settings: 5 mM MβCD prior to 25 ng/ml HGF
Procedure: Rac1 Activation Assay—Rac1 activity assays were performed as described (Ren et al., 1999) in human lung EC.

[2] = test system: Human pulmonary microvascular EC (HPMVEC); experiment: EC electrical resistance (TER), HGF; type: cell-based; settings: 5 mM MβCD 30 min prior to 25 ng/ml HGF
Procedure: (§1) Measurement of EC Electrical Resistance—EC were grown to confluence in polycarbonate wells containing evaporated gold microelectrodes, and TER measurements were performed using an electrical cell-substrate impedance sensing system obtained from Applied Biophysics (Troy, N.Y.) as described (Garcia et al., 2001). TER values from each microelectrode were pooled at discrete time points and plotted versus time as the mean±S.E.

[3] = test system: Human pulmonary artery EC; experiment: Transendothelial electrical resistance (TER) of HA-treated EC monolayers, Example 1; type: cell-based; settings: 5 mM MβCD or 10 μg/ml anti-CD44 (IM-7) antibody, 100 nM High or Low MW HA
Procedure: as §1, with “TransEC” for “EC”, “Resistance (TER)—EC” for “Resistance—EC”, “microelectrodes.” for “microelectrodes, and”, “(Applied Biophysics, Troy,” for “obtained from Applied Biophysics (Troy,”

Human pulmonary EC [4] = experiment: TER, Example 5; type: cell-based; settings: MβCD or IM-7 antibody
Procedure: Measurement of TransEC Electrical Resistance (TER). EC were grown to confluence in polycarbonate wells containing evaporated gold microelectrodes, and TER measurements performed using an electrical cell-substrate impedance sensing system (Applied Biophysics, Troy, N.Y.) as previously described (Garcia et al., 2001). TER values from each microelectrode were pooled at discrete time points and plotted versus time as the mean±S.E.

Tiam1 = target: T1, Tiam1 (human, UniProt Q13009 2-1591, limits assumed); experiment: immunoprecipitation of dynamin 2 from CEM fractions of human EC, immunoblot with anti-Tiam1
T1 construct: Endogenous protein in CEM fractions; also called T-lymphoma invasion and metastasis gene 1
Procedure: Immunoprecipitation and Immunoblotting—Cellular materials from treated or untreated HPMVEC were incubated with IP buffer (50 mM HEPES (pH 7.5), 150 mM NaCl, 20 mM MgCl₂, 1% Nonidet P-40 (NP-40), 0.4 mM Na₃VO₄, 40 mM NaF, 50 μM okadaic acid, 0.2 mM phenylmethylsulfonyl fluoride, 1:250 dilution of Calbiochem protease inhibitor mixture 3). Following immunoprecipitation with either anti-CD44 or anti-dynamin 2 IgG, the samples were subjected to SDS-PAGE in 4-15% polyacrylamide gels, transferred onto Immobilon™ membranes, and developed with specific primary and secondary antibodies. Enhanced chemiluminescence (Amersham Biosciences) was used to visualize immunoreactive bands. In some instances, standardized average grey values (S.A.G.V., processed from ImageQuant™ software (Amersham Biosciences)) were obtained for immunoreactive bands for quantification.
Role of Tiam1, cortactin and dynamin 2 in HGF/c-Met-mediated human EC barrier enhancement. Since CD44 appears to regulate HGF-induced EC barrier enhancement (FIG. 12), whether Tiam1, cortactin and/or dynamin 2 were involved in HGF-induced increases in EC barrier integrity was examined. […] Silencing CD44 (siRNA) expression attenuated the HGF-induced recruitment of these molecules to CEM (FIG. 13-B); silencing either Tiam1 or dynamin 2 expression abolished cortactin localization to CEM (FIG. 14-A and -B). […]

[5] = target: T2, HABP2, murine (mouse lung) (mouse, UniProt Q8K0D2 24-558, limits assumed); experiment: anti-HABP2 immunoprecipitation of mouse lung homogenates, non-reducing SDS-PAGE, immunoblot
T2 construct: Immunoprecipitated with anti-HABP2 antibody from mouse lung homogenates; also called murine HABP2
Procedure: FIG. 24 Analysis of HABP2 and C1INH expression and complex formation in murine lungs with or without LPS treatment and effective silencing of HABP2 expression in murine lungs. Panel A—Male B6129N2 mice (8-10 weeks) were anesthetized with intraperitoneal ketamine (150 mg/kg) and acetylpromazine (15 mg/kg) before exposure of the right internal jugular vein via neck incision. LPS (2.5 mg/kg) or water (control) were instilled […]. The animals were allowed to recover for 24 hours after LPS before lung extraction. Extracted lungs were homogenized, N=6 samples per condition were pooled, run on SDS-PAGE and immunoblotted with anti-HABP2 (1), anti-C1INH (2) or anti-actin (3) antibody. Panel B—Homogenized lung samples as described in Panel A were immunoprecipitated with anti-HABP2 antibody, run on non-reducing SDS-PAGE and immunoblotted with either anti-HABP2 or anti-C1INH antibody. The upper arrow indicates an SDS-stable complex between HABP2 and C1INH. The lower arrow indicates the free (active) faun of HABP2. Panel C—Male B6129N2 mice (8-10 weeks) were anesthetized with intraperitoneal ketamine (150 mg/kg) and acetylpromazine (15 mg/kg) before exposure of the right internal jugular vein via neck incision. 10 mg/kg in vivo stable scramble siRNA (control) or HABP2 siRNA (Dharmacon) were instilled intravenously through the internal jugular vein. […]

Human pulmonary EC [6] = experiment: TER, HABP2/C1INH regulation of EC barrier function (Examples 3 and 6); type: cell-based; settings: purified C1INH; 1.0 μg/ml LPS, 100 nM HA, 10 μg/ml HABP2
Procedure: Measurement of transendothelial monolayer electrical resistance (TER). EC were grown to confluence in polycarbonate wells containing evaporated gold microelectrodes, and TER measurements performed using an electrical cell-substrate impedance sensing system obtained from Applied Biophysics (Troy, N.Y.) as previously described in detail (Garcia et al. 2001). TER values from each microelectrode were pooled at discrete time points and plotted versus time as the mean±S.E.
Determination of EC barrier function. Human pulmonary endothelial cells were grown to confluence in polycarbonate wells containing evaporated gold microelectrodes (surface area, 10-3 cm^2) in series with a large gold counter electrode (1 cm^2) connected to a phase-sensitive lock-in amplifier as described previously. Measurements of transendothelial electrical resistance (TER) were performed using an electrical cell-substrate impedance sensing system (ECIS) (Applied BioPhysics Inc.). Briefly, current was applied across the electrodes by a 4,000-Hz AC voltage source with amplitude of 1 V in series with a 1 MS/resistance to approximate a constant current source (˜1 μA). The in-phase and out-of-phase voltages between the electrodes were monitored in real time with the lock-in amplifier and subsequently converted to scalar measurements of transendothelial impedance, of which resistance was the primary focus. TER was monitored for 30 minutes to establish a baseline resistance (R0) which, for pulmonary endothelium, was typically between 8 to 12×10^3Ω (wells with R0<7×10^3Ω were rejected). As cells adhere and spread out on the microelectrode, TER increases (maximal at confluence), whereas cell retraction, rounding, or loss of adhesion was reflected by a decrease in TER. These measurements provide a highly sensitive biophysical assay that indicates the state of cell shape and focal adhesion. Values from each microelectrode were pooled at discrete time points and plotted versus time as the mean±SE of the mean (Garcia et al., 2001).

T2 sequence (Q8K0D2 24-558 limits assumed): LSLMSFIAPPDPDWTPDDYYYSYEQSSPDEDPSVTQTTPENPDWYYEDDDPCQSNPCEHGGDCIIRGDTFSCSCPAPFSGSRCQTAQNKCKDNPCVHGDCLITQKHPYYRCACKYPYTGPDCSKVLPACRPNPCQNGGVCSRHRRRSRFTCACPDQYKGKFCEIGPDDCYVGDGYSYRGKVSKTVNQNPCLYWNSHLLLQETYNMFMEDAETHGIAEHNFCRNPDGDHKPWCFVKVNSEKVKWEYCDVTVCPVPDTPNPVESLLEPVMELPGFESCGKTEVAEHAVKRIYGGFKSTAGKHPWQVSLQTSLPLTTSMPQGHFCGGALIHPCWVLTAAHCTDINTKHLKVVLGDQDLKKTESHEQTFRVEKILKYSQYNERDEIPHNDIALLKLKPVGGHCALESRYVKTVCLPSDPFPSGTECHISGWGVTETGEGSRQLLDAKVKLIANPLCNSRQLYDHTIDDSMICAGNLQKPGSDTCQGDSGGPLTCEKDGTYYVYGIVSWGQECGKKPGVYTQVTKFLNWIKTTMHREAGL
T1 sequence (Q13009 2-1591 limits assumed): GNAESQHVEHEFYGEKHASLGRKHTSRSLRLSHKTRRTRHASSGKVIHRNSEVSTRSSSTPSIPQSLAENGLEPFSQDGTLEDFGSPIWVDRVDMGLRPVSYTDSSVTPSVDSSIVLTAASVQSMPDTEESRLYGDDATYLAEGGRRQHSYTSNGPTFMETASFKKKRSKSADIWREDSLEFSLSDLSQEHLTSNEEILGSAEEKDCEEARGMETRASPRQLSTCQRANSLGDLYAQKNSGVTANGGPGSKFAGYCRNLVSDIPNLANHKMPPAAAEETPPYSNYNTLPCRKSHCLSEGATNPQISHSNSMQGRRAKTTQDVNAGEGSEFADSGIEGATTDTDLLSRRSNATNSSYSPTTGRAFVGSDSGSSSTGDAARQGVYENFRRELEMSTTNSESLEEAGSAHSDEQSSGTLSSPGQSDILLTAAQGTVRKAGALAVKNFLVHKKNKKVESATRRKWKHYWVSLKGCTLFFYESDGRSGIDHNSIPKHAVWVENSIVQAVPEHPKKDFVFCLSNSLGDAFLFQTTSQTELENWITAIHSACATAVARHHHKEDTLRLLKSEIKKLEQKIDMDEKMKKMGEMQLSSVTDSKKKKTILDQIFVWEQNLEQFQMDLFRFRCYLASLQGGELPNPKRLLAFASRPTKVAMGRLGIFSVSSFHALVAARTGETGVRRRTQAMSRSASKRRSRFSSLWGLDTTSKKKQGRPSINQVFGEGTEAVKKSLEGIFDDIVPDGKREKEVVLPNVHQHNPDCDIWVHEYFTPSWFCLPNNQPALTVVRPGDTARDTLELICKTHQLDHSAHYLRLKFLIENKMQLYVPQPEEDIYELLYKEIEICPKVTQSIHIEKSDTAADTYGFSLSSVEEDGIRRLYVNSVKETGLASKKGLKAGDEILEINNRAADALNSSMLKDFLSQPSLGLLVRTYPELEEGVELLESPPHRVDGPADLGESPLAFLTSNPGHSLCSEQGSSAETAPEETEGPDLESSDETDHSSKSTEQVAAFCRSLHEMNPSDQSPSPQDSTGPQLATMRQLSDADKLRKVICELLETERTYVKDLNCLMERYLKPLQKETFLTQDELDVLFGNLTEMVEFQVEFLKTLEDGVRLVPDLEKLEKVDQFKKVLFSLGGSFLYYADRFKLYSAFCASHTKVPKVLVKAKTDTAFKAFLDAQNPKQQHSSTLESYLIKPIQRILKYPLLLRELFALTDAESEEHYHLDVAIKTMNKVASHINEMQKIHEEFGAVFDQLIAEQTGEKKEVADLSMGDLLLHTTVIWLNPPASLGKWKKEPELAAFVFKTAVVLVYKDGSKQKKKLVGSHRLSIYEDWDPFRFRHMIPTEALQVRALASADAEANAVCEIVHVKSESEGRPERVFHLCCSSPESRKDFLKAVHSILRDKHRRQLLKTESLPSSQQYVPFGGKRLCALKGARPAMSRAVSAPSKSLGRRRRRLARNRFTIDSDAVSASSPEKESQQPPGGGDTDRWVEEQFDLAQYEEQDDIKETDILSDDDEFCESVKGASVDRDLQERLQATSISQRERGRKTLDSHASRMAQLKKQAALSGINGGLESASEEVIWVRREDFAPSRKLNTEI

methyl-β-cyclodextrin
inhibition of HMW-HA induced cortical actin reorganization [1]: HMW-HA induced cortical actin reorganization was inhibited
inhibition of HGF-induced Rac1 activation (Rac1): inhibited HGF-induced Rac1 activation
inhibition of HGF-induced increases in EC barrier function (TER) [2]: attenuated HGF-induced increases in human EC barrier function
inhibition of HA-induced changes in TER [3]: abolished both HMW- and LMW-HA-induced changes in TER
inhibition of effects of HA on TER (Human pulmonary EC [4]): effects of HA on TER were inhibited

B1: dynamin 2 (other, human, UniProt P50570 1-870, looked up)
chain: MGNRGMEELIPLVNKLQDAFSSIGQSCHLDLPQIAVVGGQSAGKSSVLENFVGRDFLPRGSGIVTRRPLILQLIFSKTEHAEFLHCKSKKFTDFDEVRQEIEAETDRVTGTNKGISPVPINLRVYSPHVLNLTLIDLPGITKVPVGDQPPDIEYQIKDMILQFISRESSLILAVTPANMDLANSDALKLAKEVDPQGLRTIGVITKLDLMDEGTDARDVLENKLLPLRRGYIGVVNRSQKDIEGKKDIRAALAAERKFFLSHPAYRHMADRMGTPHLQKTLNQQLTNHIRESLPALRSKLQSQLLSLEKEVEEYKNFRPDDPTRKTKALLQMVQQFGVDFEKRIEGSGDQVDTLELSGGARINRIFHERFPFELVKMEFDEKDLRREISYAIKNIHGVRTGLFTPDLAFEAIVKKQVVKLKEPCLKCVDLVIQELINTVRQCTSKLSSYPRLREETERIVTTYIREREGRTKDQILLLIDIEQSYINTNHEDFIGFANAQQRSTQLNKKRAIPNQGEILVIRRGWLTINNISLMKGGSKEYWFVLTAESLSWYKDEEEKEKKYMLPLDNLKIRDVEKGFMSNKHVFAIFNTEQRNVYKDLRQIELACDSQEDVDSWKASFLRAGVYPEKDQAENEDGAQENTFSMDPQLERQVETIRNLVDSYVAIINKSIRDLMPKTIMHLMINNTKAFIHHELLAYLYSSADQSSLMEESADQAQRRDDMLRMYHALKEALNIIGDISTSTVSTPVPPPVDDTWLQSASSHSPTPQRRPVSSIHPPGRPPAVRGPTPGPPLIPVPVGAAASFSAPPIPSRPGPQSVFANSDLFPAPPQIPSRPVRIPPGIPPGVPSRRPPAAPSRPTIIRPAEPSLLD
notes: Immunoprecipitated with rabbit anti-dynamin 2 antibody from solubilized CEM fractions
binding result (Tiam1): no binding

B2: C1INH, murine (mouse lung) (other, UniProt P97290 23-504, looked up)
chain: DPEATSHSTQDPLEAQAKSRESFPERDDSWSPPEPTVLPSTWPTTSVAITITNDTMGKVANESFSQHSQPAAQLPTDSPGQPPLNSSSQPSTASDLPTQATTEPFCPEPLAQCSDSDRDSSEAKLSEALTDFSVKLYHAFSATKMAKTNMAFSPFSIASLLTQVLLGAGDSTKSNLESILSYPKDFACVHQALKGFSSKGVTSVSQIFHSPDLAIRDTYVNASQSLYGSSPRVLGPDSAANLELINTWVAENTNHKIRKLLDSLPSDTCLVLLNAVYLSAKWKITFEPKKMMAPFFYKNSMIKVPMMSSVKYPVAQFDDHTLKAKVGQLQLSHNLSFVIVVPVFPKHQLKDVEKALNPTVFKAIMKKLELSKFLPTYLTMPHIKVKSSQDMLSVMEKLEFFDFTYDLNLCGLTEDPDLQVSAMKHETVLELTESGVEAAAASAISFGRSLPIFEVQRPFLFLLWDQQHRFPVFMGRVYDPRG
notes: Detected with anti-C1INH antibody in anti-HABP2 immunoprecipitates of mouse lung homogenates
binding result [5]: binds
effect on EC barrier changes (TER) induced by LPS, LMW-HA, HABP2 and HMW-HA (Human pulmonary EC [6]): inhibited the EC barrier disrupting effects of LPS, LMW-HA and HABP2 while enhancing the barrier protective effects of HMW-HA
